Measured values published in patent US20100286145A1, “ISOPHTHALAMIDE DERIVATIVES INHIBITING BETA-SECRETASE ACTIVITY” (CoMentis, Inc., priority 2007, published 2010).
Like-named read-outs stand apart in the source and are kept apart here.

Columns and labels:
[1] = target: memapsin 2 (Homo sapiens, UniProt P56817); assay: Inhibition of memapsin 2 beta-secretase activity (fluorogenic substrate FS-2); type: biochemical; settings: memapsin 2, pH 4, 37° C., read-out: M2Ki
Procedure, shortened: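 Kinetic fluorogenic assay: hydrolysis of the MCA/DNP-labelled APP Swedish-variant peptide FS-2 monitored as fluorescence rise at 37° C, pH 4, after 20 min enzyme–compound preincubation. Relative rates fitted with a tight-binding inhibitor model.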

[2] = tested on: Aβ production in Chinese hamster ovary cells that over-express human APP695 with the London and Swedish mutations; assay: Cellular Aβ IC50 determination (Aβ40 sandwich ELISA); type: cell-based; settings: Cricetulus griseus; cellular Aβ production; read-out: IC50
Procedure, shortened: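 Aβ40 in media quantified by sandwich ELISA, normalized to control incubations and fitted with a 4-parameter IC50 model. Compounds dosed to a final concentration near 4 μM (0.4% DMSO) on CHO cells expressing human APP695 (London and Swedish mutants) seeded at 10% confluency.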

memapsin 2, sequence (P56817 46-501): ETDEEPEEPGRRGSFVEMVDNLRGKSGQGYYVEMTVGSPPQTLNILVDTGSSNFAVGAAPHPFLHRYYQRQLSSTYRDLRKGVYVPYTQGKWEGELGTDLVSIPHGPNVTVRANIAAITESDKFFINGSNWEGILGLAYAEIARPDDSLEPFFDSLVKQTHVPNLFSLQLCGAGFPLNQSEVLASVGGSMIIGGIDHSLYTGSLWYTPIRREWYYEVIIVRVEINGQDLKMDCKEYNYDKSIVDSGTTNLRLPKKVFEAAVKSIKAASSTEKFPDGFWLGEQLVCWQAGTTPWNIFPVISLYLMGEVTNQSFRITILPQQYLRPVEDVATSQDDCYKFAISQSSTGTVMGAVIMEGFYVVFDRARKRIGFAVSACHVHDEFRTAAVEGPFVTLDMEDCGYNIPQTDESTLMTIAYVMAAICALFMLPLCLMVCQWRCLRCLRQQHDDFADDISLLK

SMILES	Ki ([1]; 20 minutes pre-incubation) [nM]	IC50 [2] [nM]	Ki ([1]; fluorogenic substrate FS-2) [nM]
CNc1nc(CNC[C@@H](O)[C@H](Cc2ccccc2)NC(=O)c2cccc(C(=O)N(C)Cc3nc(C)cs3)c2)cc(C(C)C)n1 [Compound 161, N1-((2S,3R)-3-hydroxy-4-((6-isopropyl-2-(methylamino)pyrimidin-4-yl)methylamino)-1-phenylbutan-2-yl)-N3-methyl-N3-((4-methylthiazol-2-yl)methyl)isophthalamide]	< 300	< 1000	–
Cc1csc(CN(C(=O)c2cccc(C(=O)N[C@@H](Cc3ccccc3)[C@H](O)CNCc3cccc(OC(F)(F)F)c3)c2)C2CC2)n1 [Compound 51, N1-cyclopropyl-N3-((2S,3R)-3-hydroxy-1-phenyl-4-(3-(trifluoromethoxy)benzylamino)butan-2-yl)-N1-((4-methylthiazol-2-yl)methyl)isophthalamide]	< 300	< 1000	–
Cc1csc(CN(C)C(=O)c2cccc(C(=O)N[C@@H](Cc3ccccc3)[C@H](O)CNCc3cc(C#N)cc(C(F)(F)F)c3)c2)n1 [Compound 266, N1-((2S,3R)-4-(3-cyano-5-(trifluoromethyl)benzylamino)-3-hydroxy-1-phenylbutan-2-yl)-N3-methyl-N3-((4-methylthiazol-2-yl)methyl)isophthalamide]	–	< 1000	< 300
Cc1csc(CN(C)C(=O)c2cccc(C(=O)N[C@@H](Cc3ccccc3)[C@H](O)CNC(C)c3cncc(C(C)C)c3)c2)n1 (stereo partly drawn) [Compound 148, N1-((2S,3R)-3-hydroxy-4-(1-(5-isopropylpyridin-3-yl)ethylamino)-1-phenylbutan-2-yl)-N3-methyl-N3-((4-methylthiazol-2-yl)methyl)isophthalamide]	< 300	< 1000	–
Cc1csc(CN(C)C(=O)c2cc(CO)cc(C(=O)N[C@@H](Cc3ccccc3)[C@H](O)CNCc3cncc(C(C)C)c3)c2)n1 [Compound 192, N1-((2S,3R)-3-hydroxy-4-((5-isopropylpyridin-3-yl)methylamino)-1-phenylbutan-2-yl)-5-(hydroxymethyl)-N3-methyl-N3-((4-methylthiazol-2-yl)methyl)isophthalamide]	< 300	< 1000	–
Cc1csc(CN(C)C(=O)c2cc(C(=O)N[C@@H](Cc3ccccc3)[C@H](O)CNCc3cccc(C(F)(F)F)c3)cc(N(C)C)c2)n1 [Compound 254, 5-(dimethylamino)-N1-((2S,3R)-3-hydroxy-1-phenyl-4-(3-(trifluoromethyl)benzylamino)butan-2-yl)-N3-methyl-N3-((4-methylthiazol-2-yl)methyl)isophthalamide]	–	< 1000	< 300
C[C@@H](NC(=O)c1cc(C(=O)N[C@@H](Cc2ccccc2)[C@H](O)CNCc2cccc(C(C)(F)F)c2)cc(N(C)S(C)(=O)=O)c1)c1ccccc1 [Compound 144, N1-((2S,3R)-4-(3-(1,1-difluoroethyl)benzylamino)-3-hydroxy-1-phenylbutan-2-yl)-5-(N-methylmethylsulfonamido)-N3-((R)-1-phenylethyl)isophthalamide]	< 300	< 1000	–
CNc1cccc(CNC[C@@H](O)[C@H](Cc2ccccc2)NC(=O)c2cccc(C(=O)N(C)Cc3nc(C)cs3)c2)c1 [Compound 167, N1-((2S,3R)-3-hydroxy-4-(3-(methylamino)benzylamino)-1-phenylbutan-2-yl)-N3-methyl-N3-((4-methylthiazol-2-yl)methyl)isophthalamide]	< 300	< 1000	–
C[C@@H](NC(=O)c1cc(C(=O)N[C@@H](Cc2ccccc2)[C@H](O)CNCc2cccc(C#N)c2)cc(N(C)S(C)(=O)=O)c1)c1ccccc1 [Compound 149, N1-((2S,3R)-4-(3-cyanobenzylamino)-3-hydroxy-1-phenylbutan-2-yl)-5-(N-methylmethylsulfonamido)-N3-((R)-1-phenylethyl)isophthalamide]	< 300	< 1000	–
CC(=O)c1cccc(CNC[C@@H](O)[C@H](Cc2ccccc2)NC(=O)c2cccc(C(=O)N(C)Cc3nc(C)cs3)c2)c1 [Compound 124, N1-((2S,3R)-4-(3-acetylbenzylamino)-3-hydroxy-1-phenylbutan-2-yl)-N3-methyl-N3-((4-methylthiazol-2-yl)methyl)isophthalamide]	< 300	< 1000	–
Cc1csc(CN(C)C(=O)c2cccc(C(=O)N[C@@H](Cc3ccccc3)[C@H](O)CNCc3cc(Cl)cc(Cl)c3)c2)n1 [Compound 236, N1-((2S,3R)-4-(3,5-dichlorobenzylamino)-3-hydroxy-1-phenylbutan-2-yl)-N3-methyl-N3-((4-methylthiazol-2-yl)methyl)isophthalamide]	–	< 1000	< 300

Other lines, results leading:

Ki ([1]; 20 minutes pre-incubation) [nM]	IC50 [2] [nM]	Ki ([1]; fluorogenic substrate FS-2) [nM]	SMILES
–	< 1000	< 300	Cc1csc(CN(C)C(=O)c2cc(C(=O)N[C@@H](Cc3ccccc3)[C@H](O)CNCc3cccc(C(F)(F)F)c3)cc(-c3cnccn3)c2)n1 [Compound 222, N1-((2S,3R)-3-hydroxy-1-phenyl-4-(3-(trifluoromethyl)benzylamino)butan-2-yl)-N3-methyl-N3-((4-methylthiazol-2-yl)methyl)-5-(pyrazin-2-yl)isophthalamide]
–	< 1000	< 300	Cc1csc(CN(C)C(=O)c2cc(C(=O)N[C@@H](Cc3ccccc3)[C@H](O)CNCc3cncc(C(C)C)c3)cc(-c3cnccn3)c2)n1 [Compound 214, N1-((2S,3R)-3-hydroxy-4-((5-isopropylpyridin-3-yl)methylamino)-1-phenylbutan-2-yl)-N3-methyl-N3-((4-methylthiazol-2-yl)methyl)-5-(pyrazin-2-yl)isophthalamide]
–	> 5000	< 300	Cc1csc(CN(C)C(=O)c2cccc(C(=O)N[C@@H](Cc3ccccc3)[C@H](O)CNCc3cc(C(C)C)cc(S(=O)(=O)C(C)C)c3)c2)n1 [Compound 229, N1-((2S,3R)-3-hydroxy-4-(3-isopropyl-5-(isopropylsulfonyl)benzylamino)-1-phenylbutan-2-yl)-N3-methyl-N3-((4-methylthiazol-2-yl)methyl)isophthalamide]
–	< 1000	< 300	CNS(=O)(=O)c1cc(CNC[C@@H](O)[C@H](Cc2ccccc2)NC(=O)c2cccc(C(=O)N(C)Cc3nc(C)cs3)c2)cc(C(C)C)c1 [Compound 251, N1-((2S,3R)-3-hydroxy-4-(3-isopropyl-5-(N-methylsulfamoyl)benzylamino)-1-phenylbutan-2-yl)-N3-methyl-N3-((4-methylthiazol-2-yl)methyl)isophthalamide]
–	< 1000	< 300	Cc1csc(CN(C)C(=O)c2cc(C(=O)N[C@@H](Cc3ccccc3)[C@H](O)CNCc3cncc(C(C)C)c3)cc(-c3ccc(F)nc3)c2)n1 [Compound 259, 5-(6-fluoropyridin-3-yl)-N1-((2S,3R)-3-hydroxy-4-((5-isopropylpyridin-3-yl)methylamino)-1-phenylbutan-2-yl)-N3-methyl-N3-((4-methylthiazol-2-yl)methyl)isophthalamide]
–	< 1000	< 300	Cc1csc(CN(C)C(=O)c2cccc(C(=O)N[C@@H](Cc3ccccc3)[C@H](O)CNCc3cccc(-c4ccccc4)c3)c2)n1 [Compound 267, N1-((2S,3R)-4-(biphenyl-3-ylmethylamino)-3-hydroxy-1-phenylbutan-2-yl)-N3-methyl-N3-((4-methylthiazol-2-yl)methyl)isophthalamide]
< 300	< 1000	–	Cc1csc(CN(C)C(=O)c2cccc(C(=O)N[C@@H](Cc3ccccc3)[C@H](O)CNCc3cc(C(C)C)ccn3)c2)n1 [Compound 5, N1-((2S,3R)-3-hydroxy-4-((4-isopropylpyridin-2-yl)methylamino)-1-phenylbutan-2-yl)-N3-methyl-N3-((4-methylthiazol-2-yl)methyl)isophthalamide]
< 300	< 1000	–	COc1cccc(C(C)(C)NC[C@@H](O)[C@H](Cc2ccccc2)NC(=O)c2cccc(C(=O)N(C)Cc3nc(C)cs3)c2)c1 [Compound 163, N1-((2S,3R)-3-hydroxy-4-(2-(3-methoxyphenyl)propan-2-ylamino)-1-phenylbutan-2-yl)-N3-methyl-N3-((4-methylthiazol-2-yl)methyl)isophthalamide]
< 300	< 1000	–	Cc1cc(C(=O)N[C@@H](Cc2ccccc2)[C@H](O)CNCc2ccnc(C(C)C)c2)cc(C(=O)N(C)Cc2nc(C)cs2)c1 [Compound 60, N1-((2S,3R)-3-hydroxy-4-((2-isopropylpyridin-4-yl)methylamino)-1-phenylbutan-2-yl)-N3,5-dimethyl-N3-((4-methylthiazol-2-yl)methyl)isophthalamide]
–	< 1000	< 300	Cc1csc(CN(C)C(=O)c2cccc(C(=O)N[C@@H](Cc3ccccc3)[C@H](O)CNCc3cc(O)cc(C(C)(C)C)c3)c2)n1 [Compound 215, N1-((2S,3R)-4-(3-tert-butyl-5-hydroxybenzylamino)-3-hydroxy-1-phenylbutan-2-yl)-N3-methyl-N3-((4-methylthiazol-2-yl)methyl)isophthalamide]
< 300	< 1000	–	COC(=O)Nc1cc(CNC[C@@H](O)[C@H](Cc2ccccc2)NC(=O)c2cccc(C(=O)N(C)Cc3nc(C)cs3)c2)cc(C(C)C)c1 [Compound 202, methyl 3-(((2R,3S)-2-hydroxy-3-(3-(methyl((4-methylthiazol-2-yl)methyl)carbamoyl)benzamido)-4-phenylbutylamino)methyl)-5-isopropylphenylcarbamate]
< 300	1000 to 5000	–	CNC(=O)c1cc(C(=O)N[C@@H](Cc2ccccc2)[C@H](O)CNCc2cccc(OC)c2)cc(C(=O)N(C)Cc2nc(C)cs2)c1 [Compound 98, N1-((2S,3R)-3-hydroxy-4-(3-methoxybenzylamino)-1-phenylbutan-2-yl)-N3,N5-dimethyl-N3-((4-methylthiazol-2-yl)methyl)benzene-1,3,5-tricarboxamide]
